Assay results reported in ChEMBL document CHEMBL6182926, “Design, Synthesis, and Biological Activity Evaluation of Deuterated Diphenyl Azole Alcohol-Based CYP51 Inhibitors” (J Med Chem, 2025).
Converted amounts (≈) assume the structure as drawn. The source made the active and inactive calls. The rule behind the calls is not given here.

Legend:
[1] = tested on: Candida albicans; assay: Antifungal activity against Candida albicans SC 5314 assessed as inhibition of visible growth; type: functional
[2] = tested on: Candida albicans; assay: Antifungal activity against Candida albicans CPCC 400616 assessed as inhibition of visible growth; type: functional
[3] = tested on: Candida tropicalis; assay: Antifungal activity against Candida tropicalis CGMCC 2.3739 assessed as inhibition of visible growth; type: functional
[4] = tested on: Candida parapsilosis; assay: Antifungal activity against Candida parapsilosis GIM 2.190 assessed as inhibition of visible growth; type: functional; conditions: Lodderomyces parapsilosis
[5] = tested on: Nakaseomyces glabratus; assay: Antifungal activity against Clinical isolate Candida glabrata assessed as inhibition of visible growth; type: functional
[6] = tested on: Pichia kudriavzevii; assay: Antifungal activity against Candida krusei AS 2.1045 assessed as inhibition of visible growth; type: functional
[7] = tested on: Cryptococcus neoformans; assay: Antifungal activity against Cryptococcus neoformans CGMCC 2.3161 assessed as inhibition of visible growth; type: functional
[8] = tested on: Aspergillus fumigatus; assay: Antifungal activity against Aspergillus fumigatus CGMCC 3.7795 assessed as inhibition of visible growth; type: functional
[9] = Metabolic stability in human liver microsomes assessed as half life by LC-MS/MS analysis; type: ADME, Microsome; conditions: for half-life: liver microsomes
[10] = Metabolic stability in human liver microsomes assessed as compound remaining measured up to 60 mins by LC-MS/MS analysis; type: ADME, Microsome; conditions: for remaining at 1 h: liver microsomes, read-out: Activity
[11] = Cytotoxicity against human HUVEC cells measured after 72 hrs by MTT assay; type: toxicity, cell-based
[12] = tested on: Candida albicans; assay: Antifungal activity against Candida albicans CPCC 400616 assessed as suppression of hyphal formation (inhibition of yeast to hypha transition) at 2 microg/ml measured after 4 hrs by inverted microscopy; type: functional, organism-based; conditions: dose 2.0 µg/ml, tested as the 2H-labelled form
[13] = tested on: Cell membrane; assay: Induction of loss of cell membrane integrity in Candida albicans SC5314 assessed as irregular cell morphology at 16 microg/ml measured after 48 hrs incubation by transmission electron microscopy; type: subcellular; conditions: dose 16.0 µg/ml, tested as the 2H-labelled form
[14] = tested on: Cell membrane; assay: Induction of loss of cell membrane integrity in Candida albicans SC5314 assessed as leakage of intracellular components into the extracellular environment at 16 microg/ml measured after 48 hrs incubation by transmission electron microscopy; type: subcellular; conditions: dose 16.0 µg/ml
[15] = tested on: Mus musculus; assay: In vivo antifungal activity against Candida albicans SC5314 infected in ICR mouse model assessed as mouse survival at 1 mg/kg, oral gavage measured for 21 days post infection; type: functional, organism-based; conditions: time 21.0 day, tested as the 2H-labelled form
[16] = tested on: Candida albicans; assay: In vivo antifungal activity against Candida albicans SC5314 infected in cyclophosphamide-immunosuppressed ICR mouse model assessed as reduction in fungal burden in kidney at 1 mg/kg, oral gavage for 5 days post infection; type: functional, organism-based; conditions: time 5.0 day, tested as the 2H-labelled form
[17] = tested on: Candida albicans; assay: In vivo antifungal activity against Candida albicans SC5314 infected in cyclophosphamide-immunosuppressed ICR mouse model assessed as reduction in fungal burden in kidney at 5 mg/kg, oral gavage for 5 days post infection; type: functional, organism-based; conditions: time 5.0 day, tested as the 2H-labelled form
[18] = tested on: Candida albicans; assay: In vivo anti-resistant activity against fluconazole-resistant Candida albicans strain 17# infected in cyclophosphamide-immunosuppressed ICR mouse model assessed as reduction in fungal burden in kidney at 5 mg/kg, oral gavage for 5 days post infection; type: functional, organism-based; conditions: time 5.0 day, tested as the 2H-labelled form
[19] = tested on: Candida albicans; assay: In vivo anti-resistant activity against fluconazole-resistant Candida albicans strain 17# infected in cyclophosphamide-immunosuppressed ICR mouse model assessed as reduction in fungal burden in kidney at 10 mg/kg, oral gavage for 5 days post infection; type: functional, organism-based; conditions: time 5.0 day, tested as the 2H-labelled form

| SMILES | MIC80 [1] | MIC80 [2] | MIC80 [3] | MIC80 [4] | MIC80 [5] | MIC80 [6] | MIC80 [7] | MIC80 [8] | also measured |
| --- | --- | --- | --- | --- | --- | --- | --- | --- | --- |
| CN(Cc1ccc(N2CCN(Cc3ccc(F)cc3Br)CC2)cc1)CC(O)(Cn1cncn1)c1ccc(F)cc1F (stereo not drawn) | 0.006 µg/mL (≈ 0.00953 µM) | 0.006 µg/mL (≈ 0.00953 µM) | 0.006 µg/mL (≈ 0.00953 µM) | 0.006 µg/mL (≈ 0.00953 µM) | 0.05 µg/mL (≈ 0.0794 µM) | 0.05 µg/mL (≈ 0.0794 µM) | 0.012 µg/mL (≈ 0.0191 µM) | 0.05 µg/mL (≈ 0.0794 µM) | half-life [9]: 2.89 min; remaining at 1 h [10]: 0.936%; IC50 at 72 h [11]: 21 µM |
| [2H]C([2H])([2H])N(Cc1ccc(-c2ccc(Cl)cc2)nc1)[C@H](C)[C@](O)(Cn1cncn1)c1ccc(F)cc1F | 0.006 µg/mL (≈ 0.0123 µM) | 0.006 µg/mL (≈ 0.0123 µM) | 0.006 µg/mL (≈ 0.0123 µM) | 0.006 µg/mL (≈ 0.0123 µM) | 0.012 µg/mL (≈ 0.0246 µM) | 0.012 µg/mL (≈ 0.0246 µM) | 0.006 µg/mL (≈ 0.0123 µM) | 0.05 µg/mL (≈ 0.103 µM) | half-life [9]: 2.3 min; remaining at 1 h [10]: 1.07% |
| [2H]C([2H])([2H])N(Cc1ccc(-c2ccc(Cl)cc2)cc1)[C@H](C)[C@](O)(Cn1cncn1)c1ccc(F)cc1F | 0.006 µg/mL (≈ 0.0123 µM) | 0.006 µg/mL (≈ 0.0123 µM) | 0.006 µg/mL (≈ 0.0123 µM) | 0.006 µg/mL (≈ 0.0123 µM) | 0.012 µg/mL (≈ 0.0247 µM) | 0.012 µg/mL (≈ 0.0247 µM) | 0.006 µg/mL (≈ 0.0123 µM) | 0.025 µg/mL (≈ 0.0514 µM) |  |
| [2H]C([2H])([2H])N(Cc1ccc(-c2ccc(C(F)(F)F)cc2)cc1)[C@H](C)[C@](O)(Cn1cncn1)c1ccc(F)cc1F | 0.006 µg/mL (≈ 0.0115 µM) | 0.006 µg/mL (≈ 0.0115 µM) | 0.006 µg/mL (≈ 0.0115 µM) | 0.006 µg/mL (≈ 0.0115 µM) | 0.012 µg/mL (≈ 0.0231 µM) | 0.012 µg/mL (≈ 0.0231 µM) | 0.012 µg/mL (≈ 0.0231 µM) | 0.025 µg/mL (≈ 0.0481 µM) | half-life [9]: 35.1 min; remaining at 1 h [10]: 29% |
| [2H]C([2H])([2H])N(Cc1ccc(-c2ccc(Cl)cc2)cn1)[C@H](C)[C@](O)(Cn1cncn1)c1ccc(F)cc1F | 0.006 µg/mL (≈ 0.0123 µM) | 0.006 µg/mL (≈ 0.0123 µM) | 0.006 µg/mL (≈ 0.0123 µM) | 0.006 µg/mL (≈ 0.0123 µM) | 0.025 µg/mL (≈ 0.0513 µM) | 0.012 µg/mL (≈ 0.0246 µM) | 0.012 µg/mL (≈ 0.0246 µM) | 0.05 µg/mL (≈ 0.103 µM) |  |
| [2H]C([2H])([2H])N(Cc1ccc(-c2ccc(Cl)cc2F)cc1)[C@H](C)[C@](O)(Cn1cncn1)c1ccc(F)cc1F | 0.006 µg/mL (≈ 0.0119 µM) | 0.006 µg/mL (≈ 0.0119 µM) | 0.006 µg/mL (≈ 0.0119 µM) | 0.006 µg/mL (≈ 0.0119 µM) | 0.025 µg/mL (≈ 0.0496 µM) | 0.012 µg/mL (≈ 0.0238 µM) | 0.012 µg/mL (≈ 0.0238 µM) | 0.012 µg/mL (≈ 0.0238 µM) |  |
| [2H]C([2H])([2H])N(Cc1ccc(-c2ccc(Cl)cc2F)cc1F)[C@H](C)[C@](O)(Cn1cncn1)c1ccc(F)cc1F | 0.012 µg/mL (≈ 0.023 µM) | 0.012 µg/mL (≈ 0.023 µM) | 0.012 µg/mL (≈ 0.023 µM) | 0.012 µg/mL (≈ 0.023 µM) | 0.025 µg/mL (≈ 0.0479 µM) | 0.05 µg/mL (≈ 0.0958 µM) | 0.025 µg/mL (≈ 0.0479 µM) | 0.05 µg/mL (≈ 0.0958 µM) |  |
| CN(Cc1ccc(-c2ccc(Cl)cc2)cc1)CC(O)(Cn1cncn1)c1ccc(F)cc1F (stereo not drawn) | 0.006 µg/mL (≈ 0.0128 µM) | 0.006 µg/mL (≈ 0.0128 µM) | 0.006 µg/mL (≈ 0.0128 µM) | 0.006 µg/mL (≈ 0.0128 µM) | 0.012 µg/mL (≈ 0.0256 µM) | 0.012 µg/mL (≈ 0.0256 µM) | 0.012 µg/mL (≈ 0.0256 µM) |  | t1/2 ([9]; microsomes): 9.23 min; Activity ([10]; microsomes, 1 h): 21.3% |
| [2H]C([2H])([2H])N(Cc1ccc(-c2ccc(C(F)(F)F)cc2)nc1)[C@H](C)[C@](O)(Cn1cncn1)c1ccc(F)cc1F | 0.012 µg/mL (≈ 0.0231 µM) | 0.006 µg/mL (≈ 0.0115 µM) | 0.012 µg/mL (≈ 0.0231 µM) | 0.006 µg/mL (≈ 0.0115 µM) | 0.012 µg/mL (≈ 0.0231 µM) | 0.012 µg/mL (≈ 0.0231 µM) | 0.012 µg/mL (≈ 0.0231 µM) | 0.025 µg/mL (≈ 0.048 µM) |  |
| [2H]C([2H])([2H])N(Cc1ccc(-c2ccc(Cl)cc2)c(F)c1)[C@H](C)[C@](O)(Cn1cncn1)c1ccc(F)cc1F | 0.006 µg/mL (≈ 0.0119 µM) | 0.006 µg/mL (≈ 0.0119 µM) | 0.006 µg/mL (≈ 0.0119 µM) | 0.006 µg/mL (≈ 0.0119 µM) | 0.025 µg/mL (≈ 0.0496 µM) | 0.012 µg/mL (≈ 0.0238 µM) | 0.012 µg/mL (≈ 0.0238 µM) | 0.025 µg/mL (≈ 0.0496 µM) |  |
| C[C@@H](N(C)Cc1ccc(-c2ccc(OC(F)(F)F)cc2)cc1)[C@](O)(Cn1cncn1)c1ccc(F)cc1F |  |  |  |  |  |  |  |  | inhibition [12]: Active; Activity [13]: Active; Activity [14]: Active; Activity [15]: inactive; Activity [16]: Active; Low Dose Antifungal Activity Weaker Than Fluconazole (Positive Control); Activity [17]: Active; Activity [18]: Active; Activity [19]: Active; Compound Showed Far Superior Effect Than Fluconazole |
| [2H]C([2H])([2H])N(Cc1ccc(-c2ccc(Cl)c(F)c2)nc1)[C@H](C)[C@](O)(Cn1cncn1)c1ccc(F)cc1F | 0.012 µg/mL (≈ 0.0238 µM) | 0.012 µg/mL (≈ 0.0238 µM) | 0.006 µg/mL (≈ 0.0119 µM) | 0.006 µg/mL (≈ 0.0119 µM) | 0.012 µg/mL (≈ 0.0238 µM) | 0.012 µg/mL (≈ 0.0238 µM) | 0.012 µg/mL (≈ 0.0238 µM) | 0.025 µg/mL (≈ 0.0495 µM) |  |
| [2H]C([2H])([2H])N(Cc1ccc(-c2ccc(Cl)c(F)c2)cc1)[C@H](C)[C@](O)(Cn1cncn1)c1ccc(F)cc1F | 0.006 µg/mL (≈ 0.0119 µM) | 0.006 µg/mL (≈ 0.0119 µM) | 0.006 µg/mL (≈ 0.0119 µM) | 0.006 µg/mL (≈ 0.0119 µM) | 0.012 µg/mL (≈ 0.0238 µM) | 0.006 µg/mL (≈ 0.0119 µM) | 0.006 µg/mL (≈ 0.0119 µM) | 0.006 µg/mL (≈ 0.0119 µM) | half-life [9]: 14.1 min; remaining at 1 h [10]: 4.91% |
| O[C@@](Cn1cnnn1)(c1ccc(F)cc1F)C(F)(F)c1ccc(-c2ccc(OCC(F)(F)F)cc2)cn1 [OTESECONAZOLE] | 0.006 µg/mL (≈ 0.0114 µM) | 0.006 µg/mL (≈ 0.0114 µM) | 0.006 µg/mL (≈ 0.0114 µM) | 0.006 µg/mL (≈ 0.0114 µM) | 0.1 µg/mL (≈ 0.19 µM) | 0.1 µg/mL (≈ 0.19 µM) | 0.012 µg/mL (≈ 0.0228 µM) | > 64 µg/mL |  |
| [2H]C([2H])([2H])N(Cc1ccc(-c2ccc(Cl)c(F)c2)cc1F)[C@H](C)[C@](O)(Cn1cncn1)c1ccc(F)cc1F | 0.012 µg/mL (≈ 0.023 µM) | 0.012 µg/mL (≈ 0.023 µM) | 0.012 µg/mL (≈ 0.023 µM) | 0.012 µg/mL (≈ 0.023 µM) | 0.025 µg/mL (≈ 0.0479 µM) | 0.025 µg/mL (≈ 0.0479 µM) | 0.025 µg/mL (≈ 0.0479 µM) | 0.05 µg/mL (≈ 0.0958 µM) |  |
| [2H]C([2H])([2H])N(Cc1ccc(-c2ccc(Cl)cc2F)nc1)[C@H](C)[C@](O)(Cn1cncn1)c1ccc(F)cc1F | 0.012 µg/mL (≈ 0.0238 µM) | 0.006 µg/mL (≈ 0.0119 µM) | 0.012 µg/mL (≈ 0.0238 µM) | 0.006 µg/mL (≈ 0.0119 µM) | 0.012 µg/mL (≈ 0.0238 µM) | 0.012 µg/mL (≈ 0.0238 µM) | 0.012 µg/mL (≈ 0.0238 µM) | 0.05 µg/mL (≈ 0.099 µM) |  |
